The source of these data is publication PMC10424179, “Disrupting Kaposi’s Sarcoma-Associated Herpesvirus (KSHV) Latent Replication with a Small Molecule Inhibitor” (Journal of Medicinal Chemistry, 2023).

For this experiment, the target named is T1, LANA–DNA interaction (LANA DBD aa934-1162 wild type / LBS1) (Human herpesvirus 8 type P, UniProt Q9QR71).
T1 construct: LANA DBD (aa934-1162) wild type protein (200 nM final) was incubated with
The experiment can be described thus: EMSA, LANA DBD wild type with LBS1. The experiment is classed as biochemical, Kaposi's sarcoma-associated herpesvirus (KSHV). How it is done: Equation y = A2 + (A1-A2)/(1 + (x/x0)^p)
Fig S1: Binding affinity curves via MST for all compounds. Values are means of at least three replicates.
1.4 Electrophoretic Mobility Shift Assay (EMSA)
The EMSA was carried out with slight modific ations as described previously 2 based on the assay in Hellert et al. (2013). 3 His-tagged oligomerization-deficient LANA DBD (aa1008-1146) mutant protein or LANA DBD (aa934-1162) wild type protein (200 nM final) was incubated with a 5´-Dy682-labeled double stranded DNA probe (IBA Lifesciences) (20 nM final) for 30 minutes at RT in the dark. The reaction buffer consisted of 30 mM Tris HCl pH 7.5, 50 mM KCl, 10 mM MgCl2, 1 mM DTT, 1 mM EDTA, 10% glycerol, 0.25% Tween20, 0.5 mg/mL BSA and 0.05 mg/mL poly(dI-dC). […]
dark. 10 µL of the reaction was run on a pre -run native 5% acrylamide gel for 45 minutes at 100V with tris-borate-EDTA buffer. Images of the gels were acquired and analysed with the Odyssey (Licor) using the Image Studio software.
Fig S2: Gels of EMSA experiments at 250 μM for all compounds (A) and dose-dependent curves for compound 20 using LANA DBD mutant (B) and LANA wildtype (C) as well as LBS1. Values are means […]
Gleichung y = A2 + (A1-A2)/(1 + (x/x0)^p) […]

The structures appear in SMILES notation.

T1 sequence (Q9QR71 901-1129): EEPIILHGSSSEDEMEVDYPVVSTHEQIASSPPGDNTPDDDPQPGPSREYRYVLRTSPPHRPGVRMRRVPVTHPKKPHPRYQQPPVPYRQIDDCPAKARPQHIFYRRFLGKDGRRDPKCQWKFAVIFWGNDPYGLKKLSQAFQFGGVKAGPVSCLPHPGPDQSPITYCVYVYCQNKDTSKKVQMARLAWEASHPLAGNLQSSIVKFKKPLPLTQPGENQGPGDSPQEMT

One may read the IC50 as the midpoint of a concentration-inhibition curve. A lower IC50 goes with higher potency. The molecule `COc1ccc(-c2cc(C)c(-n3cc(-c4ccc(C(=O)O)cc4)nn3)cn2)c(Cl)c1` [Compound 20] returned an IC50 of 205 µM.
